Consider one compound from patent publication US10130611B2, “Use of benzo-heterocycle derivatives for preventing and treating cancer or for inhibiting cancer metastasis” (MEDICINAL BIOCONVERGENCE RESEARCH CENTER, priority 2009, dated 2018).

One assay concerns A549 cells. Nature of the assay: Western blotting of 67LR and 37LRP levels in A549 cells. The class given is cell-based, human. Particulars: KL1 in different amounts. How it is done:
(§1) As a control, an OD level of cells treated with DMSO was measured. FIG. 32 is a photograph showing cell growth in wells containing yeast cells having indicated interaction pairs in the presence or absence of CAND-KL1. In FIG. 33, in 293 cells, through co-immunoprecipitation, the KL1-dose-dependent effect on the interaction between KRS and 67LR was tested. The cells were treated with KL1 for 3 hours, 67LR was immunoprecipitated, and co-precipitation of KRS was determined by western blotting. In FIG. 34, in the presence of KL1 in indicated levels, a laminin receptor labeled with radioisotope was mixed with GST-KRS (1 μg). GST-KRS was precipitated with glutathione-Sepharose beads, and co-precipitated laminin receptor was detected with autoradiography. In FIG. 35, in A549 cells, the effect of KL1 on the intracellular level of 67LR and 37LRP was tested with western blotting. […] GST-KRS was immobilized on a CM5 Sensor Chip, and the binding was measured by a resonance unit (RU) at indicated concentrations (indicated by different colors). […]
(§2) From among the compounds, the inventors also examined whether the compound represented by Formula 15 (indicated by CAND-KL1, and KL1) can inhibit the intracellular interaction between KRS and 67LR. […] Then, 67LR was immunoprecipitated with its antibody, and co-immunoprecipitation of KRS was determined. […]
A general note: A western blot detects proteins with antibodies after separation by electrophoresis.

Assay [1] deals with T1, interaction between laminin receptor and GST-KRS (Homo sapiens, UniProt Q15046).
T1 construct: made in house; host or cells: GST-KRS: E. coli Rosetta (DE3); 37LRP: TNT Quick coupled Transcription/Translation system (Promega) from pcDNA3-37LRP
Nature of the assay: In vitro pull-down of radiolabelled laminin receptor with GST-KRS. It counts as binding. The settings on record: KL1 in different amounts; GST-KRS 1 μg; autoradiography. How it is done: as §1, §2

In the next assay the test system is MMP2. Nature of the assay: MMP2 activity (zymography). The class given is cell-based, human. The settings on record: KL1 in different amounts. The method, then:
On MMP2 activity (FIG. 37) and cell migration (FIGS. 38 and 39), KL1-dose-dependent effect was measured. For the test on the cell migration, the cells were treated with KL1 for 8 hours. In FIG. 40, in order to see the effect of KL1 on protein synthesis of cells, A549 cells were treated with KL1 at indicated concentrations, and starved in methionine-free medium. Then, [^35S] methionine was added thereto for 2 hours. Then, the cells were incubated in complete medium for 4 hours, and the level of added methionine was measured by a scintillation counter. In FIG. 41, KL1-dose-dependent cytotoxicity was measured by using A549 cells. In FIG. 42, the effect of KL1 on cancer metastasis was measured according to the method as described above. In each group, 6 mice were included, and KL1 was abdominally injected for 3 weeks, in a dose of 30 mg/kg once a day. Then, the mice were sacrificed. The metastasized tumor nodules over 1 mm in diameter were counted, and their average was calculated (left). The photograph of a representative lung is shown at the right side. In FIG. 43, on a KL1 treated group and a KL1 non-treated, primary tumors were observed.
A549 cells were transfected with the plasmids encoding the indicated siRNAs and recombinant KRS (or DRS) were incubated for 48 and 24 hours, respectively, and were inoculated to RPMI medium containing 10% FBS (1×10^5 cells/well). […]

T1 sequence (Q15046 whole entry): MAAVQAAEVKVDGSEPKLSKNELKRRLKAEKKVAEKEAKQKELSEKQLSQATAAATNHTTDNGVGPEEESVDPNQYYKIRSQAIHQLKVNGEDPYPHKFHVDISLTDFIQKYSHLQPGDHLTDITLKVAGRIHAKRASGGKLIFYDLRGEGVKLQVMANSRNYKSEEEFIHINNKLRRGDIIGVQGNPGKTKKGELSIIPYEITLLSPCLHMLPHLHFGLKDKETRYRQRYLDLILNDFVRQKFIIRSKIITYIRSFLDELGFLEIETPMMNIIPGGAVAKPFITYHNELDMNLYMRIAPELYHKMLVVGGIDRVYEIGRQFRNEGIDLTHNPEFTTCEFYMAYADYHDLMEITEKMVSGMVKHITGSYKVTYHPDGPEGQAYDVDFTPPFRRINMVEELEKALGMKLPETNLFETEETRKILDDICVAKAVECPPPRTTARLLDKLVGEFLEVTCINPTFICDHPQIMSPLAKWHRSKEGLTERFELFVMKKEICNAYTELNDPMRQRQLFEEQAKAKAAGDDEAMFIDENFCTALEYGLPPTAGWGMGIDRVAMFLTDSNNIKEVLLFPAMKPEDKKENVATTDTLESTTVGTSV

Consider `CCC(C(=O)O)n1/c(=N/C(=O)c2ccc(C)cc2)sc2ccccc21` (stereo not shown) [Compound of formula 15, 2-[2-(4-Methyl-benzoylimino)-benzothiazol-3-yl]-butyric acid], for which, in the assay on A549 cells, the “cytoplasmic 37LRP level” value was “no effect” and the “intracellular level of 67LR” value was “decreased by the amount of added KL1”. Also, the “level of laminin receptor pulled down with GST-KRS” value in assay [1] is “decreased according to an increase of the added KL1 compound”. In addition, the MMP2 activity result with MMP2 was “inhibited”.
